Calls of active or inactive are those of the source. The rule behind the calls is not given here.
Experiments:
Cavia porcellus = species on record: Cavia porcellus; assay: Inhibition of CaCl2-induced myocardial arrhythmias in guinea pig; assay type: functional, organism-based
Rattus norvegicus = species on record: Rattus norvegicus; assay: Inhibition of ouabain-induced myocardial arrhythmias in rat; assay type: functional, organism-based

`c1cc2cc3c(cc2c(Cc2ccc4c(c2)OCO4)n1)OCO3` was tested, and the Activity (Cavia porcellus) was “Active” and the Activity (Rattus norvegicus) was “Active”.

From ChEMBL document CHEMBL1151104, “Mollinedine, a New Alkaloid from Mollinedia costaricensis” (J Nat Prod, 1988)
